US9284276B2, “N-ethyl-N-phenyl-1,2-dihydro-4,5-di-hydroxy-1-methyl-2-oxo-3-quinolinecarboxamide, preparation and uses thereof” (TEVA PHARMACEUTICAL INDUSTRIES, LTD., priority 2012, dated 2016)

Experiments:
[1] = Stability of 5-HLAQ in solvents; format: physicochemical; settings: in most of the organic solvents as well as in aqueous acidic conditions
Description: N-Ethyl-N-phenyl-1,2-dihydro-4,5-di-hydroxy-1-methyl-2-oxo-3-quinolinecarboxamide (5-HLAQ) is not stable in most of the organic solvents as well as in aqueous acidic conditions. Therefore common purification methods were extremely difficult. The di-acetate derivative Compound 3 is an elegant way to purify the material followed only by basic hydrolysis, acidic precipitation and rapid filtration.

[2] = in vivo; cited from earlier work
[3] = test system: acute experimental autoimmune encephalomyelitis (aEAE) model; settings: U.S. Pat. No. 6,077,851; cited from earlier work
[4] = Influence of blister pack material on photo-degradation of laquinimod 0.6 mg capsules; format: physicochemical
Description: The goal of this study is to examine the photo-degradation of laquinimod sodium capsules, 0.6 mg, packed in blisters of various materials.
One batch of laquinimod sodium capsules, 0.6 mg/capsule was packed into four different types of blisters: PVC/AC/PVDC/PVLE/P058 504 142 (transparent), PVC/PE-EVOH/AC (A 300) G03 140 MM (transparent), A-/PVC/PE-EVOH/AC-PC (opaque), and KPMAX WH (opaque). Control was the same batch not exposed to sunlight in HDPE 50 cc DUMA™ bottle.

[5] = test system: active MRI lesions in relapsing MS; settings: Polman et al. 2005; cited from earlier work
[6] = Formation of 5-HLAQ on light exposure of laquinimod, determined by HPLC; format: physicochemical
Description: Various forms of laquinimod were exposed to light, as specified below. Presence of 5-HLAQ was determined using HPLC.

Q: With CCN(C(=O)c1c(O)c2c(O)cccc2n(C)c1=O)c1ccccc1 [Compound 5-HLAQ, N-Ethyl-N-phenyl-1,2-dihydro-4,5-di-hydroxy-1-methyl-2-oxo-3-quinolinecarboxamide] as the molecule, how does the Stability in solvents [1] read?
A: not stable

Q: With CCN(C(=O)c1c(O)c2c(Cl)cccc2n(C)c1=O)c1ccccc1 [Laquinimod sodium] as the molecule, how does the Oral bioavailability [2] read?
A: high

Q: Which “Efficacy in aEAE model” value [3] does the source give for CCN(C(=O)c1c(O)c2c(Cl)cccc2n(C)c1=O)c1ccccc1 [Laquinimod, N-ethyl-N-phenyl-1,2-dihydro-4-hydroxy-5-chloro-1-methyl-2-oxoquinoline-3-carboxamide] here?
A: effective

Q: What about the Sensitivity to light [4] of the same molecule?
A: sensitive to light

Q: And the “Development of active MRI lesions” value [5]?
A: can reduce development of active MRI lesions

Q: And the “Presence of 5-HLAQ (wt %)” value ([6]; Light chamber 310-400 nm (~8 hrs.), 0.05 mg/ml in 0.02M HCl)?
A: 1.5 wt %

Q: What about the “Presence of 5-HLAQ (wt %)” value ([6]; Light chamber 310-400 nm (~8 hrs.), 0.05 mg/ml in 0.02M NaOH) of the same molecule?
A: 71 wt %

Q: And the “Presence of 5-HLAQ (wt %)” value ([6]; Light chamber 310-400 nm (~8 hrs.), 1 mg/ml in 0.02M NaOH, relative to laquinimod before photodegradation)?
A: 33 wt %

Q: And the “Presence of 5-HLAQ (wt %)” value ([6]; Sunlight cabinet (5 minutes), 0.09 mg/ml aqueous solution)?
A: 11.8 wt %
